System: newborn piglets
Assay: Meconium aspiration model: newborn piglets given human meconium by deep intratracheal instillation, monitored 7 days
Assay type: in vivo
Settings: 3 ml/kg of 20% human meconium intratracheal, daily oral dosage of 0.7 mg/kg started within one hour after birth, versus placebo
Experimental: Immediately after birth, twelve newborn piglets are given 3 ml/kg of a 20% solution of human meconium by deep intratracheal instillation. Next, the piglets are randomly assigned to two groups of each six animals. Within one hour after birth, one group is treated with a daily oral dosage of 0.7 mg/kg estetrol whilst the control group is treated with placebo. During the next 7 days the condition of the piglets belonging to both groups are monitored. […] Example 1 was repeated, except that this time one group was treated with a daily oral dosage of 30 μg/kg estradiol instead of estetrol.

## C[C@]12CC[C@@H]3c4ccc(O)cc4CC[C@H]3[C@@H]1[C@@H](O)[C@@H](O)[C@@H]2O [estetrol]
  incidence of severe complications of MAS versus control group: substantially lower
